Laboratory results reported in US20060052457A1, “Use of ppar alpha agonists for the treatment of vascular and renal diseases” (priority 2002, published 2006).
“Also recorded” adds a separate entry of the source.

Legend:
smooth muscle cells = assay: DNA synthesis by smooth muscle cells with PPAR-gamma agonists (FIG. 13); type: cell-based
[1] = test system: porcine coronary artery smooth muscle cells; assay: [3H]thymidine incorporation (DNA synthesis) after PDGF stimulation, porcine coronary artery SMCs; type: cell-based; settings: PDGF 0.1 μg, 72 h
Method: (§1) SMCs were prepared by explant culture as previously described, grown in 24-well culture dishes to 70% confluence and then placed into serum-free DMEM supplemented with insulin, ascorbate, pyruvate and selenium for 5 days. These conditions result in the cessation of cell growth, and markers of the contractile state are expressed. The cells were subsequently treated with PDGF (0.1 μg) in the presence or absence of WY-14643, and 2 μCi/mL [^3H]thymidine were added to the culture medium 24 hours later. Seventy-two hours following PDGF treatment, incorporation of thymidine into trichloroacetate-precipitable material was measured. The data, which is presented as means±s.e. (n=3), are shown for porcine SMCs (panel A), human saphenous vein SMCs (panel B) and human internal mammary artery SMCs (panel C). All values have been normalized relative to the incorporation in unstimulated quiescent cells (control=100).
Quiescent SMCs were treated with PDGF (01. μg/ml) in the presence and absence of PGJ2, and incorporation of thymidine was measured as previously described. The data are presented as means±s.e. (n=3).
Quiescent SMCs were treated with PDGF (0.1 μg) in the presence or absence of clofibrate, and incorporation of thymidine was measured as previously described. The data are presented as means±s.e. (n=3).

[2] = test system: human saphenous vein SMCs; assay: [3H]thymidine incorporation (DNA synthesis) after PDGF stimulation, human saphenous vein SMCs; type: cell-based; settings: PDGF 0.1 μg, 72 h
Method: as §1, with “C).” for “C). All values have been normalized relative to the incorporation in unstimulated quiescent cells (control=100).”

[3] = test system: porcine coronary artery smooth muscle cells; assay: Basal DNA synthesis without mitogenic stimulation, quiescent porcine coronary artery SMCs; type: cell-based; settings: for basal DNA synthesis in the absence of mitogenic stimulation: quiescent porcine coronary artery SMCs
Method: (§2) Quiescent SMCs (panel A) and H4IIE cells (panel B) were treated with PGJ2 and incorporation of thymidine was measured as previously described. Quiescent SMCs were also treated with WY-14643 (panel C) and incorporation of thymidine was measured. The data are presented as means±s.e. (n=3).

H4IIE hepatoma cells [4] = assay: [3H]thymidine incorporation (DNA synthesis) by H4IIE hepatoma cells after IGF-1; type: cell-based; settings: IGF-1 0.1 μM, 72 h
Method: H4IIE hepatoma cells were cultured and quiescent cells were prepared in 24-well culture dishes by placing the cells into serum-free α-MEM for 3 days. The cells were treated with IGF-1 (0.1 μM) in the presence or absence of WY-14643, and 2 μCi/mL [^3H]thymidine were added concurrent with the treatment. Seventy-two hours following treatment, the cells were lysed and thymidine incorporation was measured as described above. The data are presented as means+/−s.e. (n=3).

A10 smooth muscle cells = assay: [3H]thymidine incorporation (DNA synthesis) by A10 smooth muscle cells after PDGF or IGF-1; type: cell-based, rat; settings: A10 SMCs, 72 h
Method: […] were cultured and quiescent cells were prepared in 24-well culture dishes as described in the legend for FIG. 2. The cells were treated with PDGF (0.1 μg) or IGF-1 (0.1 μM) in the presence or absence of WY-14643, and 2 μCi/mL [^3H]thymidine were added to the medium concurrent with the mitogens. Seventy-two hours following treatment, the cells were lysed and thymidine incorporation was measured as described above. […] (n=3), for A10 cells treated with PDGF (panel A) and IGF-1 (panel B).

[5] = test system: human proximal tubule cells; assay: Growth (cell number, Coulter counter) of human proximal tubule cells; type: cell-based
Method: Human proximal tubule cells were purchased from Clonetics and propagated in 24-well culture dishes with Renal Epithelial Cell Basal medium (REBM) containing 0.5% fetal bovine serum (FBS). Treatments were added once the cells reached 40% confluence. Incubation was continued for 4 days, at which time the cells were detached by trypsinization and cell number measured with a Coulter counter. All comparisons are relative to a cell population treated with 5 μg/ml aphidicolin, a non-toxic inhibitor of cell proliferation. The data are presented as means+/−s.e. (n=6).

[6] = test system: Porcine coronary arteries; assay: Organ culture model of restenosis (balloon angioplasty ex vivo, neointimal index); type: cell-based; settings: 250 μM continuous, 14 days in culture after balloon angioplasty ex vivo
Method: Porcine coronary arteries were subjected to balloon angioplasty ex vivo and placed into culture for 14 days. Treatment with WY-14643 (250 μM) was continuous over the entire time period. Subsequently, the vessel segments were sectioned and morphometry was employed to quantify the extent of restenosis. The neointimal index is defined as: neointimal area/medial area. The data are presented as means±s.e. (n=8). Control=no balloon angioplasty.

[7] = test system: human internal mammary artery SMCs; assay: [3H]thymidine incorporation (DNA synthesis) after PDGF stimulation, human internal mammary artery SMCs; type: cell-based; settings: PDGF 0.1 μg, 72 h
Method: as §1, with “C).” for “C). All values have been normalized relative to the incorporation in unstimulated quiescent cells (control=100).”

H4IIE hepatoma cells [8] = assay: Basal DNA synthesis without mitogenic stimulation, quiescent H4IIE hepatoma cells; type: cell-based
Method: as §2

Structure (SMILES) | inhibition of DNA synthesis by smooth muscle cells (smooth muscle cells) | DNA synthesis (thymidine incorporation) in response to PDGF stimulation [1] | DNA synthesis (thymidine incorporation) in response to PDGF stimulation [2] | basal DNA synthesis in the absence of mitogenic stimulation [3] | apparent toxicity / cytotoxicity (FIG. 9) ([3]; stated with reference to FIG. 9) | DNA synthesis in response to stimulation by IGF-1 (H4IIE hepatoma cells [4]) | DNA synthesis in response to IGF-1 stimulation (A10 smooth muscle cells; IGF-1 0.1 μM) | DNA synthesis in response to PDGF stimulation (A10 smooth muscle cells; PDGF 0.1 μg) | growth of human proximal tubule cells (cell number) ([5]; 4 days incubation, relative to aphidicolin 5 μg/ml) | apparent toxicity in primary human renal proximal tubule cells ([5]; primary cultures) | neointimal proliferation / restenosis (neointimal index) [6] | DNA synthesis (thymidine incorporation) in response to PDGF stimulation [7] | basal DNA synthesis in the absence of mitogenic stimulation (H4IIE hepatoma cells [8])
CCc1ccc(CCOc2ccc(CC3SC(=O)NC3=O)cc2)nc1 (stereo not drawn) [piaglitazone] | are not |  |  |  |  |  |  |  |  |  |  |  | 
Cc1cccc(Nc2cc(Cl)nc(SCC(=O)O)n2)c1C [WY-14643] |  | inhibited DNA synthesis; also recorded: can inhibit smooth muscle cell proliferation | inhibited DNA synthesis | has no effect | without apparent toxicity | inhibits DNA synthesis; also recorded: prevented cell growth | does not inhibit DNA synthesis; also recorded: could not inhibit the growth | does not inhibit DNA synthesis; also recorded: could not inhibit the growth | prevented cell growth; also recorded: effectively inhibits the growth | without apparent toxicity | inhibits neointimal proliferation; also recorded: prevent restenosis | inhibited DNA synthesis | 
CCCCC[C@H](O)/C=C/[C@H]1C(=O)C=C[C@@H]1C/C=C\CCCC(=O)O [PGJ2] |  | inhibits DNA synthesis; also recorded: is inhibitory |  | inhibits basal DNA synthesis |  |  |  |  |  |  |  |  | inhibits basal DNA synthesis
